Measured values from patent US20250011364A1, “TUMOR TISSUE-PENETRATING PEPTIDE, SPECIFICALLY BINDING TO NEUROPILIN 1, FOR DRUG DELIVERY TO TUMOR, AND USE THEREOF” (CELLICON LAB INC., priority 2022, published 2025).

Experiments:
[1] = test system: AsPC-1 xenograft; assay: Tumor tissue penetration of FITC-albumin, confocal microscopy; format: in vivo, mice; details: FITC-albumin iv in conjugation/combination with peptide vs singly, tumor extracted 1, 3 and 24 hours later (FIG. 5)
Procedure: In order to examine the effect of the peptide of SEQ ID NO: 8 of the present invention on improving the tumor tissue-penetrating ability of physiologically active substances, FITC-albumin was injected intravenously (iv) singly or in conjugation/combination with the tumor tissue-penetrating peptide (five minutes) into tumor-induced AsPC-1 xenograft mice, the tumor was extracted 1, 3, and 24 hours later, and analysis was performed using a confocal microscope (albumin molecular weight: about 70 kDa).

[2] = molecular target: NRP-1 (Homo sapiens, UniProt O14786); assay: Competitive ELISA assay, inhibition of VEGF 165 binding to NRP-1; details: NRP-1 treated with peptide and VEGF, competitive ELISA (FIG. 6)
NRP-1, sequence (O14786 22-923): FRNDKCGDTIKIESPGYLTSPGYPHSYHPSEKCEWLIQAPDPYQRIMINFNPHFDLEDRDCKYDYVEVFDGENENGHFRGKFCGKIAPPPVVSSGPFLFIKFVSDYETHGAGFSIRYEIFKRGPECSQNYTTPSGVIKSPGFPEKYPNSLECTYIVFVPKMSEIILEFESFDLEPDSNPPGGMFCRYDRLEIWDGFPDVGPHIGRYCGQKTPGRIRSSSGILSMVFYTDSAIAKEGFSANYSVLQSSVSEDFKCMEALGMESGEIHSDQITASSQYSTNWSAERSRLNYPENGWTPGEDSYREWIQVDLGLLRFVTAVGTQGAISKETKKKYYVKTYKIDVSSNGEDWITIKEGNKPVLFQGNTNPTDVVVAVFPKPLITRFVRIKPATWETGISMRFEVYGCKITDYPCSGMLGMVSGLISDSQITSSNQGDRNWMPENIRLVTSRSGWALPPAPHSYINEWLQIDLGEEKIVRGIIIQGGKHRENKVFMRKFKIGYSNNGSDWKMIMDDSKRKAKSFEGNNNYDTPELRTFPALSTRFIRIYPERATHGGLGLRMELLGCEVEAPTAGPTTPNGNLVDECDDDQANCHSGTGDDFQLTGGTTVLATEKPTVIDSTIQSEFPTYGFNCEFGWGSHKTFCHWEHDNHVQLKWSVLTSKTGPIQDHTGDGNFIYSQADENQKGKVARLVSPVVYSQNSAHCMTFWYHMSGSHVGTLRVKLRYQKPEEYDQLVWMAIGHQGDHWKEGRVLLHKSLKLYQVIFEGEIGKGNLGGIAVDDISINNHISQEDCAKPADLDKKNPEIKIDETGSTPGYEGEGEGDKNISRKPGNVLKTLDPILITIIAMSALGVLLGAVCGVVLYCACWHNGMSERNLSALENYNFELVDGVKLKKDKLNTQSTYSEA
Source text: Therefore, the tumor tissue-penetrating peptide is more likely to bind to NRP-1 competitively, and thus can interfere with neovascularization, and this means that the tumor tissue-penetrating peptide can suppress tumor growth (FIG. 6).

[3] = test system: AsPC-1 cells; assay: MTT assay: improvement of anticancer efficacy of doxorubicin; format: cell-based; details: 48 hours, compared to the group treated with only doxorubicin (FIG. 1)
Procedure: In order to examine the function of the present invention as a tumor tissue-penetrating peptide, the effect of the present invention on improving the anticancer efficacy of doxorubicin was evaluated. Specifically, the effect of a tumor tissue-penetrating peptide consisting of any one amino acid sequence selected from SEQ ID NO: 5 to SEQ ID NO: 8 of the present invention and SEQ ID NO: 1 to SEQ ID NO: 4, derivatives thereof, on improving the anticancer efficacy of doxorubicin was evaluated.
Specifically, in order to evaluate the effect of improving anticancer efficacy, AsPC-1 cells were used to perform the MTT assay, and cell viability was analyzed and compared (FIG. 1).
Pancreatic cancer cells (AsPC-1) were cultured in 96-well plates at 2×10^5 cells/ml for 24 hours, then treated with samples at various concentrations, and cultured for another 48 hours. […] After 4 hours, the MTT solution was removed, DMSO was added to each well to dissolve formazan at 37° C. for 30 minutes, and then the absorbance was measured at 570 nm using a microplate reader (Molecular Devices Spectra MAX, Sunnyvale, CA, USA). In all experiments, the results were statistically processed by taking the average value for three wells for each concentration, and expressed as a relative viability (%) compared to that in the group treated with no sample.

[4] = test system: AsPC-1 xenograft; assay: Tumor tissue penetration of doxorubicin, confocal microscopy of tumor slides; format: in vivo, mice; details: peptide 5 μM/kg iv, doxorubicin 10 mg/kg iv 10 minutes later, tumor extracted 24 hours later; vs doxorubicin only and doxorubicin + iRGD (FIG. 4)
Procedure: In order to examine the effect of the peptide of SEQ ID NO: 8 of the present invention on improving the tumor tissue-penetrating ability of a physiologically active substance, tumor-induced AsPC-1 xenograft mice were treated with only doxorubicin, doxorubicin and iRGD as a positive control, or with tumor tissue-penetrating peptide, and the effect was compared.
Specifically, iRGD or tumor tissue-penetrating peptide (5 μM/kg) was injected intravenously (iv) into AsPC-1 xenograft mice, doxorubicin (Dox; 10 mg/kg) was injected intravenously 10 minutes later, and then the tumor was extracted 24 hours later to construct paraffin slides. The slides were stained with anti-CD31-FITC (vascular endothelial cell marker), and Dox (red)/CD31 (FITC) was analyzed using a confocal microscope.

H2N-[Arg-Lys-Leu-Phe-Arg-Lys-Ile-Leu-Lys-Tyr-Leu-Arg]-CO2H (RKLFRKILKYLR) [SEQ ID NO: 8, tumor tissue-penetrating peptide]
tumor-penetrating ability of albumin [1]: increased
NRP-1 binding of VEGF165 [2]: decreases
effect of improving anticancer efficacy of doxorubicin (cell viability) [3]: most effective
tumor tissue-penetrating ability of doxorubicin [4]: significantly superior
